Activity calls are given as the source filed them. No cut-off for these calls is given here.
Key:
MM1.S [1] = assay: Induction of apoptosis in human MM1S cells assessed as increase in necrotic cells at 2.5 uM after 24 hrs by Annexin V-FITC/propidium iodide based FACS analysis; format: functional, cell-based
MM1.S [2] = assay: Induction of apoptosis in human MM1S cells at 2.5 uM after 24 hrs by Annexin V-FITC/propidium iodide based FACS analysis; format: functional, cell-based

SMILES	Activity (MM1.S [1])	Activity (MM1.S [2])
Cc1cn([C@H]2C[C@H](OCCNCCCNCCCCNCCCN)[C@@H](C(=O)NCCCC[C@@H](NC(=O)[C@@H](C)NC(=O)[C@@H](CCCCN)NC(=O)[C@@H](C)NC(=O)[C@@H](CC(C)C)NC(=O)[C@@H](CCCCN)NC(=O)[C@@H](C)NC(=O)[C@@H](CC(C)C)NC(=O)[C@@H](CCCCN)NC(=O)CCCCCN)C(=O)O)O2)c(=O)[nH]c1=O	inactive	inactive
Cc1cn([C@H]2C[C@H](OCCNCc3c[nH]cn3)[C@@H](C(=O)NCCCC[C@@H](NC(=O)[C@@H](C)NC(=O)[C@@H](CCCCN)NC(=O)[C@@H](C)NC(=O)[C@@H](CC(C)C)NC(=O)[C@@H](CCCCN)NC(=O)[C@@H](C)NC(=O)[C@@H](CC(C)C)NC(=O)[C@@H](CCCCN)NC(=O)CCCCCN)C(=O)O)O2)c(=O)[nH]c1=O	Active	Active
Cc1cn([C@H]2C[C@H](OCCNCCCN)[C@@H](C(=O)NCCCC[C@@H](NC(=O)[C@@H](C)NC(=O)[C@@H](CCCCN)NC(=O)[C@@H](C)NC(=O)[C@@H](CC(C)C)NC(=O)[C@@H](CCCCN)NC(=O)[C@@H](C)NC(=O)[C@@H](CC(C)C)NC(=O)[C@@H](CCCCN)NC(=O)CCCCCN)C(=O)O)O2)c(=O)[nH]c1=O	inactive	inactive
CNCCO[C@H]1C[C@H](n2cc(C)c(=O)[nH]c2=O)O[C@@H]1C(=O)NCCCC[C@@H](NC(=O)[C@@H](C)NC(=O)[C@@H](CCCCN)NC(=O)[C@@H](C)NC(=O)[C@@H](CC(C)C)NC(=O)[C@@H](CCCCN)NC(=O)[C@@H](C)NC(=O)[C@@H](CC(C)C)NC(=O)[C@@H](CCCCN)NC(=O)CCCCCN)C(=O)O	inactive	inactive
CCCCCCCCNCCO[C@H]1C[C@H](n2cc(C)c(=O)[nH]c2=O)O[C@@H]1C(=O)NCCCC[C@@H](NC(=O)[C@@H](C)NC(=O)[C@@H](CCCCN)NC(=O)[C@@H](C)NC(=O)[C@@H](CC(C)C)NC(=O)[C@@H](CCCCN)NC(=O)[C@@H](C)NC(=O)[C@@H](CC(C)C)NC(=O)[C@@H](CCCCN)NC(=O)CCCCCN)C(=O)O	inactive	inactive
